Type in all cases: functional, cell-based
Test [1] relates to A-375. Nature of the test: Cytotoxicity against human A-375 cells assessed as reduction in cell viability after 48 hrs by MTT assay. The settings on record: A-375, 48 h.
Test [2] concerns MCF7. Nature of the test: Cytotoxicity against human MCF7 cells assessed as reduction in cell viability after 48 hrs by MTT assay. The following applies: MCF7, 48 h. A general note: Formazan colour is commonly taken as a measure of viable cells.
Test [3] has as its system HL-60. Nature of the test: Cytotoxicity against human HL-60 cells assessed as reduction in cell viability after 48 hrs by MTT assay. The following applies: HL-60, 48 h.

Each structure is given as a SMILES string. pIC50: −log10 of the molar value.

For `COC(=O)CCc1oc2cccc(O)c2c(=O)c1[C@H](O)C(=O)OC`, the pIC50 in test [1], in test [2] and in test [3] was less than 5.00 in each case.

With `COC(=O)c1c(N[C@@H]2Cc3oc4cccc(O)c4c(=O)c3[C@](O)(C(=O)OC)[C@@H]2O)ccc2oc3cccc(O)c3c(=O)c12`, the negative logarithm of the IC50 (pIC50) in test [1], in test [2] and in test [3] was less than 5.00 in each case.

On to `COC(=O)c1c(O)ccc2oc3cc(O)cc(O)c3c(=O)c12`, for which the negative-log IC50 (pIC50) in test [1], in test [2] and in test [3] was less than 5.00 in each case.

For the compound `COC(=O)[C@@]1(O)c2c(oc3cccc(O)c3c2=O)C[C@@H](OC)[C@H]1O`, the negative logarithm of the IC50 (pIC50) in test [1], in test [2] and in test [3] was less than 5.00 in each case.

Consider `COC(=O)[C@@]1(O)c2c(oc3cccc(O)c3c2=O)[C@@H](O)C[C@@H]1O`, for which the negative logarithm of the IC50 (pIC50) in test [1], in test [2] and in test [3] was less than 5.00 in each case.

Turning to `COC(=O)[C@@]1(O)c2c(oc3cccc(O)c3c2=O)C[C@@H](S)[C@@H]1O`, the pIC50 in test [1] was 5.07; in test [2] it was 5.19; in test [3], 5.31.

As to `O=C1N[C@@H]2Cc3oc4cccc(O)c4c(=O)c3[C@@]1(O)[C@@H]2O`, the negative logarithm of the IC50 (pIC50) in test [1], in test [2] and in test [3] was less than 5.00 throughout.

Take `COc1cccc2c1C(=O)c1c(O)c3c(c(O)c1C2=O)C[C@@](O)(C(=O)CO)C[C@@H]3O[C@H]1C[C@H](N)[C@H](O)[C@H](C)O1` [DOXORUBICIN]: the negative-log IC50 (pIC50) in test [1] is 5.68; in test [3], 5.92.

The term pIC50 denotes the IC50 on a negative log10 scale, so that one unit is a factor of ten.

The values above are taken from ChEMBL document CHEMBL4699518, “Cytotoxic Xanthone Derivatives from the Mangrove-Derived Endophytic Fungus Peniophora incarnata Z4” (J Nat Prod, 2020).
